How the values were obtained:
Avena = assay: Pre-emergence herbicidal action (Example B1); assay type: in vivo; details: 500 g of a.i./ha, sprayed immediately after sowing, evaluated after 3 weeks, nine-step scale (1=complete damage, 9=no action)
Method: (§1) Herbicidal Action Before Emergence of the Plants (Pre-emergence Action)
(§2) Monocotyledoneous and dicotyledoneous test plants are grown in standard soil in plastic pots. Immediately after sowing, the test substances are sprayed on in the form of an aqueous suspension or emulsion, prepared from a 25% emulsion concentrate (Example F1, c)), which corresponds to a dosage of 500 g of a.i./ha (500 l of water/ha). The test plants are subsequently grown in the greenhouse under optimal conditions. After a test period of 3 weeks, the experiment is evaluated on a nine-step scale (1=complete damage, 9=no action). Score figures of 1 to 4 (in particular 1 to 3) denote a good to very good herbicidal action.
(§3) Test plants: Avena, Setaria, Solanum, Stellaria, Ipomoea.

Ipomoea [1] = assay: Pre-emergence herbicidal action (Example B1); assay type: in vivo; details: 500 g of a.i./ha, sprayed immediately after sowing, evaluated after 3 weeks, nine-step scale (1=complete damage, 9=no action)
Method: as §1, §2, §3

Setaria [2] = assay: Pre-emergence herbicidal action (Example B1); assay type: in vivo; design: key: 1=complete damage; 9=no action; Score figures of 1 to 4 (in particular 1 to 3) denote a good to very good herbicidal action; details: 500 g of a.i./ha, sprayed immediately after sowing, evaluated after 3 weeks, nine-step scale (1=complete damage, 9=no action)
Method: as §1, §2, §3

Solanum [3] = assay: Pre-emergence herbicidal action (Example B1); assay type: in vivo; design: key: 1=complete damage; 9=no action; Score figures of 1 to 4 (in particular 1 to 3) denote a good to very good herbicidal action; details: 500 g of a.i./ha, sprayed immediately after sowing, evaluated after 3 weeks, nine-step scale (1=complete damage, 9=no action)
Method: as §1, §2, §3

Stellaria [4] = assay: Pre-emergence herbicidal action (Example B1); assay type: in vivo; design: key: 1=complete damage; 9=no action; Score figures of 1 to 4 (in particular 1 to 3) denote a good to very good herbicidal action; details: 500 g of a.i./ha, sprayed immediately after sowing, evaluated after 3 weeks, nine-step scale (1=complete damage, 9=no action)
Method: as §1, §2, §3

Setaria [5] = assay: Post-emergence herbicidal action (Example B2); assay type: in vivo; design: key: nine-step scale: 1 = complete damage, 9 = no action; details: 500 g of a.i./ha, sprayed in the 4- to 6-leaf stage, evaluated after approximately 18 days, nine-step scale (1=complete damage, 9=no action)
Method: (§4) Post-emergence Herbicidal Action
(§5) In the greenhouse, monocotyledoneous and dicotyledoneous test plants are grown in standard soil in plastic pots and, in the 4- to 6-leaf stage, sprayed with an aqueous suspension or emulsion of the test substances of the formula I, prepared from a 25% emulsion concentrate (Example F1, c)), which corresponds to a dosage of 500 g of a.i./ha (500 l of water/ha). The test plants are subsequently grown on in the greenhouse under optimal conditions. After a test period of approximately 18 days, the experiment is evaluated on a nine-step scale (1=complete damage, 9=no action). Score figures of 1 to 4 (in particular 1 to 3) denote a good to very good herbicidal action.
(§6) Test plants: Setaria, Sinapis, Solanum, Stellaria, Ipomoea.

Ipomoea [6] = assay: Post-emergence herbicidal action (Example B2); assay type: in vivo; design: key: 1=complete damage; 9=no action; Score figures of 1 to 4 (in particular 1 to 3) denote a good to very good herbicidal action; details: 500 g of a.i./ha, sprayed in the 4- to 6-leaf stage, evaluated after approximately 18 days, nine-step scale (1=complete damage, 9=no action)
Method: as §4, §5, §6

Sinapis = assay: Post-emergence herbicidal action (Example B2); assay type: in vivo; design: key: 1=complete damage; 9=no action; Score figures of 1 to 4 (in particular 1 to 3) denote a good to very good herbicidal action; details: 500 g of a.i./ha, sprayed in the 4- to 6-leaf stage, evaluated after approximately 18 days, nine-step scale (1=complete damage, 9=no action)
Method: as §4, §5, §6

Solanum [7] = assay: Post-emergence herbicidal action (Example B2); assay type: in vivo; design: key: 1=complete damage; 9=no action; Score figures of 1 to 4 (in particular 1 to 3) denote a good to very good herbicidal action; details: 500 g of a.i./ha, sprayed in the 4- to 6-leaf stage, evaluated after approximately 18 days, nine-step scale (1=complete damage, 9=no action)
Method: as §4, §5, §6

Stellaria [8] = assay: Post-emergence herbicidal action (Example B2); assay type: in vivo; design: key: 1=complete damage; 9=no action; Score figures of 1 to 4 (in particular 1 to 3) denote a good to very good herbicidal action; details: 500 g of a.i./ha, sprayed in the 4- to 6-leaf stage, evaluated after approximately 18 days, nine-step scale (1=complete damage, 9=no action)
Method: as §4, §5, §6

| SMILES | Pre-emergence action, score, test plant Avena (Avena) | Pre-emergence action, score, test plant Ipomoea (Ipomoea [1]) | Pre-emergence action, score, test plant Setaria (Setaria [2]) | Pre-emergence action, score, test plant Solanum (Solanum [3]) | Pre-emergence action, score, test plant Stellaria (Stellaria [4]) | melting point [°C] | Post-emergence action, score, test plant Setaria (Setaria [5]) | Post-emergence action, score, test plant Ipomoea (Ipomoea [6]) | Post-emergence action, score, test plant Sinapis (Sinapis) | Post-emergence action, score, test plant Solanum (Solanum [7]) | Post-emergence action, score, test plant Stellaria (Stellaria [8]) |
| --- | --- | --- | --- | --- | --- | --- | --- | --- | --- | --- | --- |
| C#CCOc1cc(-c2nn(C)c(C#N)c2C)c(Cl)cc1Cl [Comp. No. I3.027, 3-(2,4-dichloro-5-propargyloxyphenyl)-4-methyl-5-cyano-1-methyl-[1H]-pyrazole] | 6 | 6 | 1 | 1 | 2 | 256 to 257 |  |  |  |  |  |
| Cc1c(-c2cc(O)c(Cl)cc2Cl)nn(C)c1C#N [Comp. No. I36.103, 3-(2,4-dichloro-5-hydroxyphenyl)-4-methyl-5-cyano-1-methyl-[1H]-pyrazole] |  |  |  |  |  | 263 to 265 |  |  |  |  |  |
| Cc1c(-c2ccc(Cl)cc2F)nn(C)c1C#N [I1, 001] |  |  |  |  |  |  | 3 | 1 | 4 | 2 | 5 |
| COc1cc(-c2nn(C)c(C#N)c2C)c(F)cc1Cl [I1, 006] |  |  |  |  |  |  | 2 | 1 | 3 | 1 | 3 |
| C#CCOc1cc(-c2nn(C)c(C#N)c2C)c(F)cc1Cl [I1, 027] |  |  |  |  |  |  | 3 | 1 | 3 | 1 | 1 |
| Cc1c(-c2cc(CC(Cl)C(=O)OCc3ccccc3)c(Cl)cc2F)nn(C)c1C#N (centres unmarked) [I1, 122] |  |  |  |  |  |  | 4 | 1 | 1 | 1 | 1 |
| Cc1c(-c2cc(C(=O)O)c(Cl)cc2F)nn(C)c1C#N [I1, 130] |  |  |  |  |  |  | 3 | 1 | 1 | 1 | 1 |
| COC(=O)c1cc(-c2nn(C)c(C#N)c2C)c(F)cc1Cl [I1, 134] |  |  |  |  |  |  | 5 | 1 | 3 | 1 | 1 |
| Cc1c(-c2cc(C(=O)OC(C)C)c(Cl)cc2F)nn(C)c1C#N [I1, 140] |  |  |  |  |  |  | 2 | 1 | 4 | 1 | 1 |
| Cc1c(-c2cc(C(=O)OC(C)(C)C(=O)O)c(Cl)cc2F)nn(C)c1C#N [I1, 151] |  |  |  |  |  |  | 3 | 1 | 1 |  | 1 |
| Cc1c(-c2ccc(Cl)cc2F)nn(C)c1C#N [I1.001] | 4 | 3 | 1 | 1 | 6 | 152 to 153 |  |  |  |  |  |
| COc1cc(-c2nn(C)c(C#N)c2C)c(F)cc1Cl [I1.006] | 4 | 4 | 1 | 1 | 1 |  |  |  |  |  |  |
| C#CCOc1cc(-c2nn(C)c(C#N)c2C)c(F)cc1Cl [I1.027] | 3 | 4 | 2 | 1 | 1 | 145 to 146 |  |  |  |  |  |
| Cc1c(-c2cc(C(=O)OC(C)C)c(Cl)cc2F)nn(C)c1C#N [I1.140] | 3 | 4 | 1 | 2 | 1 |  |  |  |  |  |  |
| C#CCOc1cc(-c2nn(C)c(C#N)c2C)c(Cl)cc1Cl [I3, 027] |  |  |  |  |  |  | 6 | 3 | 3 | 1 | 3 |
| Cc1c(-c2ccc(Cl)cc2F)nn(C)c1C(N)=S [I5, 001] |  |  |  |  |  |  | 6 | 1 | 7 | 1 | 7 |
| Cc1c(-c2ccc(Cl)cc2F)nn(C)c1C(N)=S [I5.001] | 6 | 6 | 1 | 1 | 7 |  |  |  |  |  |  |
